Measurements taken from patent US20120029187A1, “HALOALKYLSULFONANILIDE DERIVATIVE” (Nissan Chemical Industries, Ltd., priority 2009, published 2012).

How the values were obtained:
Assay type in all cases: in vivo
ducksalad [1] = test: Test Example 2: herbicidal effects during the vegetation period under submerged conditions; conditions: treatment during the vegetation period under submerged conditions; dose 2.52 g/a
Summary of the method: (§1)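 Barnyardgrass, bulrush and ducksalad were co-sown in alluvial soil flooded to 4 cm and grown in a greenhouse at 25 to 30° C. At the 1- or 2-leaf stage, water-diluted emulsifiable concentrates went onto the water surface at set doses (g/a). Herbicidal effect was scored three weeks later on a graded scale.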

bulrush [2] = test: as above; conditions: treatment during the vegetation period under submerged conditions; dose 2.52 g/a
Summary of the method: as §1

barnyardgrass [3] = test: as above; conditions: treatment during the vegetation period under submerged conditions; dose 2.52 g/a
Summary of the method: as §1

large crabgrass [4] = test: Test Example 4: herbicidal effect in foliage treatment; conditions: dose 3.2 g/a
Summary of the method: (§2)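 Doses are given in grams per are of applied compound, sprayed as water-diluted emulsifiable concentrate onto foliage of 14-day-old plants grown at 25 to 30° C. Herbicidal activity was assessed visually on a rating scale after three weeks.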

Italian ryegrass [5] = test: as above; conditions: dose 3.2 g/a
Summary of the method: as §2

posumbu knotweed = test: as above; conditions: dose 3.2 g/a
Summary of the method: as §2

beadstraw [6] = test: as above; conditions: dose 3.2 g/a, three weeks after application
Summary of the method: as §2

common chickweed [7] = test: as above; conditions: dose 3.2 g/a
Summary of the method: as §2

water foxtail [8] = test: as above; conditions: dose 3.2 g/a
Summary of the method: as §2

redroot pigweed [9] = test: as above; conditions: dose 3.2 g/a
Summary of the method: as §2

giant foxtail [10] = test: as above; conditions: dose 3.2 g/a
Summary of the method: as §2

common ragweed [11] = test: as above; conditions: dose 3.2 g/a
Summary of the method: as §2

common lambsquater [12] = test: as above; conditions: dose 3.2 g/a
Summary of the method: as §2

velvetleaf [13] = test: as above; conditions: dose 3.2 g/a
Summary of the method: as §2

barnyardgrass [14] = test: as above; conditions: dose 3.2 g/a
Summary of the method: as §2

ducksalad [15] = test: Test Example 1: herbicidal effects in preemergence treatment under submerged conditions; conditions: dose 2.52 g/a
Summary of the method: (§3)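 Weed seeds and 2.5-leaf rice seedlings shared each flooded cup of alluvial soil. Dosing, expressed as g per are, was by pouring water-diluted emulsifiable concentrate onto the surface on sowing day. Mortality was graded 0 to 5 after three weeks' growth.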

bulrush [16] = test: as above; conditions: dose 2.52 g/a
Summary of the method: as §3

barnyardgrass [17] = test: as above; conditions: dose 2.52 g/a
Summary of the method: as §3

transplanted rice = test: Test Example 1: preemergence treatment under submerged conditions, effect on crop; conditions: dose 2.52 g/a
Summary of the method: as §3

large crabgrass [18] = test: Test Example 3: herbicidal effects in soil treatment; conditions: dose 3.2 g/a
Summary of the method: (§4)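 Seeds were sown in sterilized diluvial soil and covered with about 1.5 cm of soil. Compounds, formulated as emulsifiable concentrates and diluted with water, were sprayed evenly over the soil surface at set doses in g/a. Herbicidal effect was scored on a rating scale three weeks later.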

Italian ryegrass [19] = test: as above; conditions: dose 3.2 g/a
Summary of the method: as §4

beadstraw [20] = test: as above; conditions: dose 3.2 g/a
Summary of the method: as §4

common chickweed [21] = test: as above; conditions: dose 3.2 g/a
Summary of the method: as §4

water foxtail [22] = test: as above; conditions: dose 3.2 g/a
Summary of the method: as §4

redroot pigweed [23] = test: as above; conditions: dose 3.2 g/a
Summary of the method: as §4

giant foxtail [24] = test: as above; conditions: dose 3.2 g/a
Summary of the method: as §4

common ragweed [25] = test: as above; conditions: dose 3.2 g/a
Summary of the method: as §4

common lambsquater [26] = test: as above; conditions: dose 3.2 g/a
Summary of the method: as §4

velvetleaf [27] = test: as above; conditions: dose 3.2 g/a
Summary of the method: as §4

barnyardgrass [28] = test: as above; conditions: dose 3.2 g/a
Summary of the method: as §4

[29] = three weeks after the application

## O=C1CC2(CCC2)OCN1Cc1ccccc1NS(=O)(=O)C(F)(F)F [II-61]
Ducksalad [1]
  C: ducksalad, herbicidal effect (evaluation scale 0-5): 5 (mortality of 90% or above (nearly complete death))
Bulrush [2]
  B: bulrush, herbicidal effect (evaluation scale 0-5): 5 (mortality of 90% or above (nearly complete death))
Barnyardgrass [3]
  A: barnyardgrass, herbicidal effect (evaluation scale 0-5): 5 (mortality of 90% or above (nearly complete death))
Large crabgrass [4]; three weeks after application
  D: large crabgrass, herbicidal effect: 4 (mortality of at least 70% and less than 90%)
Italian ryegrass [5]; three weeks after application
  H: Italian ryegrass, herbicidal effect: 4 (mortality of at least 70% and less than 90%)
Posumbu knotweed; three weeks after application
  M: posumbu knotweed, herbicidal effect: 4 (mortality of at least 70% and less than 90%)
Beadstraw [6]
  O: beadstraw, herbicidal effect: 3 (mortality of at least 40% and less than 70%)
Common chickweed [7]; three weeks after application
  N: common chickweed, herbicidal effect: 4 (mortality of at least 70% and less than 90%)
Water foxtail [8]; three weeks after application
  G: water foxtail, herbicidal effect: 5 (mortality of 90% or above (nearly complete death))
Redroot pigweed [9]; three weeks after application
  K: redroot pigweed, herbicidal effect: 0 (mortality of less than 5% (almost ineffective))
Giant foxtail [10]; three weeks after application
  E: giant foxtail, herbicidal effect: 5 (mortality of 90% or above (nearly complete death))
Common ragweed [11]; three weeks after application
  J: common ragweed, herbicidal effect: 3 (mortality of at least 40% and less than 70%)
Common lambsquater [12]; three weeks after application
  L: common lambsquater, herbicidal effect: 3 (mortality of at least 40% and less than 70%)
Velvetleaf [13]; three weeks after application
  I: velvetleaf, herbicidal effect: 5 (mortality of 90% or above (nearly complete death))
Barnyardgrass [14]; three weeks after application
  A: barnyardgrass, herbicidal effect: 5 (mortality of 90% or above (nearly complete death))
Ducksalad [15]
  C: ducksalad, herbicidal effect (evaluation scale 0-5): 5 (mortality of 90% or above (nearly complete death))
Bulrush [16]
  B: bulrush, herbicidal effect (evaluation scale 0-5): 5 (mortality of 90% or above (nearly complete death))
Barnyardgrass [17]
  A: barnyardgrass, herbicidal effect (evaluation scale 0-5): 5 (mortality of 90% or above (nearly complete death))
Transplanted rice
  a: transplanted rice, effect on crop (evaluation scale 0-5): 2 (mortality of at least 20% and less than 40%)
Large crabgrass [18]
  D: large crabgrass, herbicidal effect (evaluation scale 0-5): 5 (mortality of 90% or above (nearly complete death))
Italian ryegrass [19]
  H: Italian ryegrass, herbicidal effect (evaluation scale 0-5): 5 (mortality of 90% or above (nearly complete death))
Beadstraw [20]
  O: beadstraw, herbicidal effect (evaluation scale 0-5): 5 (mortality of 90% or above (nearly complete death))
Common chickweed [21]
  N: common chickweed, herbicidal effect (evaluation scale 0-5): 5 (mortality of 90% or above (nearly complete death))
Water foxtail [22]
  G: water foxtail, herbicidal effect (evaluation scale 0-5): 5 (mortality of 90% or above (nearly complete death))
Redroot pigweed [23]
  K: redroot pigweed, herbicidal effect (evaluation scale 0-5): 5 (mortality of 90% or above (nearly complete death))
Giant foxtail [24]
  E: giant foxtail, herbicidal effect (evaluation scale 0-5): 5 (mortality of 90% or above (nearly complete death))
Common ragweed [25]
  J: common ragweed, herbicidal effect (evaluation scale 0-5): 4 (mortality of at least 70% and less than 90%)
Common lambsquater [26]
  L: common lambsquater, herbicidal effect (evaluation scale 0-5): 5 (mortality of 90% or above (nearly complete death))
Velvetleaf [27]
  I: velvetleaf, herbicidal effect (evaluation scale 0-5): 5 (mortality of 90% or above (nearly complete death))
Barnyardgrass [28]
  A: barnyardgrass, herbicidal effect (evaluation scale 0-5): 5 (mortality of 90% or above (nearly complete death))

## CCOC(=O)N(c1ccccc1CN1COC2(CCCC2)C(Br)C1=O)S(=O)(=O)C(F)(F)F (centres unmarked) [II-77]
Ducksalad [1]
  C: ducksalad, herbicidal effect (evaluation scale 0-5): 4 (mortality of at least 70% and less than 90%)
Bulrush [2]
  B: bulrush, herbicidal effect (evaluation scale 0-5): 5 (mortality of 90% or above (nearly complete death))
Barnyardgrass [3]
  A: barnyardgrass, herbicidal effect (evaluation scale 0-5): 0 (mortality of less than 5% (almost ineffective))
Large crabgrass [4]; [29]
  D: large crabgrass, herbicidal effect: 1 (mortality of at least 5% and less than 20%)
Italian ryegrass [5]; [29]
  H: Italian ryegrass, herbicidal effect: 0 (mortality of less than 5% (almost ineffective))
Posumbu knotweed; [29]
  M: posumbu knotweed, herbicidal effect: 3 (mortality of at least 40% and less than 70%)
Common chickweed [7]; [29]
  N: common chickweed, herbicidal effect: 3 (mortality of at least 40% and less than 70%)
Water foxtail [8]; [29]
  G: water foxtail, herbicidal effect: 5 (mortality of 90% or above (nearly complete death))
Redroot pigweed [9]; [29]
  K: redroot pigweed, herbicidal effect: 3 (mortality of at least 40% and less than 70%)
Giant foxtail [10]; [29]
  E: giant foxtail, herbicidal effect: 1 (mortality of at least 5% and less than 20%)
Common ragweed [11]; [29]
  J: common ragweed, herbicidal effect: 3 (mortality of at least 40% and less than 70%)
Common lambsquater [12]; [29]
  L: common lambsquater, herbicidal effect: 4 (mortality of at least 70% and less than 90%)
Velvetleaf [13]; [29]
  I: velvetleaf, herbicidal effect: 3 (mortality of at least 40% and less than 70%)
Barnyardgrass [14]; [29]
  A: barnyardgrass, herbicidal effect: 4 (mortality of at least 70% and less than 90%)
Ducksalad [15]
  C: ducksalad, herbicidal effect (evaluation scale 0-5): 5 (mortality of 90% or above (nearly complete death))
Bulrush [16]
  B: bulrush, herbicidal effect (evaluation scale 0-5): 5 (mortality of 90% or above (nearly complete death))
Barnyardgrass [17]
  A: barnyardgrass, herbicidal effect (evaluation scale 0-5): 5 (mortality of 90% or above (nearly complete death))
Transplanted rice
  a: transplanted rice, effect on crop (evaluation scale 0-5): 0 (mortality of less than 5% (almost ineffective))
Large crabgrass [18]
  herbicidal effect, D: large crabgrass: 5 (mortality of 90% or above (nearly complete death))
Italian ryegrass [19]
  herbicidal effect, H: Italian ryegrass: 1 (mortality of at least 5% and less than 20%)
Beadstraw [20]
  herbicidal effect, O: beadstraw: 0 (mortality of less than 5% (almost ineffective))
Common chickweed [21]
  herbicidal effect, N: common chickweed: 4 (mortality of at least 70% and less than 90%)
Water foxtail [22]
  herbicidal effect, G: water foxtail: 3 (mortality of at least 40% and less than 70%)
Redroot pigweed [23]
  herbicidal effect, K: redroot pigweed: 4 (mortality of at least 70% and less than 90%)
Giant foxtail [24]
  herbicidal effect, E: giant foxtail: 1 (mortality of at least 5% and less than 20%)
Common ragweed [25]
  herbicidal effect, J: common ragweed: 0 (mortality of less than 5% (almost ineffective))
Common lambsquater [26]
  herbicidal effect, L: common lambsquater: 5 (mortality of 90% or above (nearly complete death))
Velvetleaf [27]
  herbicidal effect, I: velvetleaf: 5 (mortality of 90% or above (nearly complete death))
Barnyardgrass [28]
  herbicidal effect, A: barnyardgrass: 4 (mortality of at least 70% and less than 90%)
